Earlier results, collected in US9757374B2, “Aripiprazole compositions and methods for its transdermal delivery” (Aequus Pharmaceuticals Inc., priority 2010, dated 2017).

solubility in water: practically insoluble
Compound: O=C1CCc2ccc(OCCCCN3CCN(c4cccc(Cl)c4Cl)CC3)cc2N1 [ARPZ, Aripiprazole]
